Assay [1] relates to immobilized GMP-140. In words: ELISA (avidin detection) of binding of biotinylated monoclonal antibodies G1, G2, G3 to immobilized GMP-140 in presence of soluble peptide. On the set-up: species or system human. The note with it: for % Binding of Biotinylated MAbs G1: peptide 1.5 mM added to biotinylated mAb G1 (2.5 micrograms/ml) before addition to immobilized GMP-140; for % Binding of Biotinylated MAbs G2: peptide 1.5 mM added to biotinylated mAb G2 (2.5 micrograms/ml) before addition to immobilized GMP-140; for % Binding of Biotinylated MAbs G3: peptide 1.5 mM added to biotinylated mAb G3 (2.5 micrograms/ml) before addition to immobilized GMP-140. The method, then: Based on competitive ELISAs with the purified protein, G1, G2, and G3 each recognize distinct or only partially overlapping epitopes. 1.5 mM peptide was added to biotinylated mAb at a concentration of 2.5 micrograms/ml, which were then added to the wells containing GMP-140, as described in example 1. Binding was measured by an ELISA with an avidin detection system.
The monoclonal antibodies were biotinylated as follows: to 0.5 ml of purified IgG antibody (1 mg/ml in PBS, pH 7.4) was added 50 µl of 3.2 mM N-hydroxysuccinimide biotin in dimethyl sulfoxide and 50 µl of 1 M NaHCO3. After a 2 hour incubation at room temperature in the dark, the reaction was stopped with 50 µl of 1 M NH4Cl. The biotinylated antibody was then separated from other components by gel filtration on a PD-10 column equilibrated in PBS. The ELISA was performed as follows; all steps were performed at room temperature.
Biotinylated antibody (2.5 µg/ml) with or without 1.5 mM peptide was incubated with wells coated with GMP-140 as described in example 1. After a 2 hour incubation, the antibody was removed, the wells were washed, and 0.1 ml of horseradish peroxidase-conjugated stepavidin (Pierce), diluted 1:1,000 in HBSS/HSA, was added for 30 min. The wells were then washed and 0.1 ml of peroxidase substrate (Pierce) was added for 15 min. The color reaction was read at 405 nm.

The subject of assay [2] is immobilized GMP-140. Kind of assay: Neutrophil adhesion to purified GMP-140 immobilized on plastic wells (myeloperoxidase read-out). The assay is classed as cell-based, human. The note with it: for inhibition of neutrophil adhesion to immobilized GMP-140 by peptides: peptide screen, result in words; for inhibition of binding of neutrophils to immobilized GMP-140, dependence on concentration: 0.1 mM to 1.5 mM peptide, Figure 2. From the text: Peptides were screened for their ability to inhibit neutrophil adhesion to purified GMP-140 immobilized on plastic wells, using the assay described by Geng, et al., Nature 343, 757-760 (1990).
Human neutrophils are isolated from heparinized whole blood by density gradient centrifugation on Mono-Poly resolving media, Flow Laboratories. Neutrophil suspensions are greater than 98% pure and greater than 95% viable by trypan blue exclusion. For adhesion assays, neutrophils are suspended at a concentration of 2 x 10^6 cells/ml in Hanks' balanced salt solution containing 1.26 mM Ca^2+ and 0.81 mM Mg^2+ (HBSS, Gibco) with 5 mg/ml human serum albumin (HBSS/HSA). Adhesion assays are conducted in triplicate in 96-well microtiter plates, Corning, incubated at 4°C overnight with 50 microliters of various protein solutions.
GMP-140 is plated at 5 micrograms/ml and the control proteins: human serum albumin (Alb), platelet glycoprotein IIb/IIIa (IIb), von Willebrand factor (vWF), fibrinogen (FIB), thrombomodulin (TM), gelatin (GEL) or human serum (HS), are added at 50 micrograms/ml. All wells are blocked for 2 h at 22°C with 300 microliters HBSS containing 10 mg/ml HSA, then washed three times with HBSS containing 0.1% Tween-20 and once with HBSS. Cells (2 x 10^5 per well were added to the wells and incubated at 22°C for 20 min. The wells were then filled with HBSS/HSA, sealed with acetate tape (Dynatech), and centrifuged inverted at 150 g for 5 min. After discarding nonadherent cells and supernates, the contents of each well are solubilized with 200 microliters 0.5% hexadecyltrimethylammonium bromide, Sigma, in 50 mM potassium phosphate, pH 6.0, and assayed for myeloperoxidase activity, Ley, et al., Blood 73, 1324-1330 (1989). The number of cells bound was derived from a standard curve of myeloperoxidase activity versus numbers of cells. Under all assay conditions, the cells released less than 5% of total myeloperoxidase and lactate dehydrogenase. Results are presented in Table I. 100% adhesion is that seen in the presence of the C-terminal peptide (amino acid residues 761-777 of GMP-140) as a negative control; this value is the same as controls in which neither peptide nor antibody is added to the cells. Inhibition is read as a lower percent adhesion, so that a value of 5% means that 95% of the specific adhesion was inhibited.
Peptides from the lectin-like domain of GMP-140 were assayed for their ability to inhibit adhesion of neutrophils to immobilized GMP-140 in the assay described in example 1. Concentrations tested ranged from 0.1 mM to 1.5 mM.

In the next assay the test system is neutrophils. In words: Specific binding of [125I]GMP-140 to neutrophils (enzyme-treated cells or with competitors). The note with it: 6.5 µM of conjugate, 65 µM of oligosaccharide; coupled to bovine serum albumin at about 10:1. On the set-up: species or system human.

Data on 17 substances can be found in patent EP0714912B1, “GMP-140 ligand” (THE BOARD OF REGENTS OF THE UNIVERSITY OF OKLAHOMA, priority 1990, dated 1992).

“C-TERMINUS 761-777: C-terminal peptide (amino acid residues 761-777 of GMP-140) as a negative control (KDDGKCPLNPHSHLGTY; UniProt P16109 802-818, looked up, fragment) [reference compound]”: in the assay on immobilized GMP-140 [1], the “% Binding of Biotinylated MAbs G1” value was determined as 100%, the “% Binding of Biotinylated MAbs G2” value was 100% and the “% Binding of Biotinylated MAbs G3” value turned out to be 100%.

Consider “EGF 128-132: synthetic peptide, amino acids 128-132 of the EGF domain of GMP-140 (SKQGE; UniProt P16109 169-173, looked up, fragment)”, for which, in the assay with immobilized GMP-140 [1], the “% Binding of Biotinylated MAbs G1” value is 107%, the “% Binding of Biotinylated MAbs G2” value is recorded as 92% and the “% Binding of Biotinylated MAbs G3” value was 104%.

Regarding “EGF 134-141: synthetic peptide, amino acids 134-141 of the EGF domain of GMP-140 (LETIGNYT; UniProt P16109 175-182, looked up, fragment)”, in the assay with immobilized GMP-140 [1], the “% Binding of Biotinylated MAbs G1” value is 97%, the “% Binding of Biotinylated MAbs G2” value was 104% and the “% Binding of Biotinylated MAbs G3” value is listed as 109%.

Regarding “EGF 145-158: synthetic peptide, amino acids 145-158 of the EGF domain of GMP-140 (YPGFYGPECEYVRE; UniProt P16109 186-199, looked up, fragment)”, in the assay on immobilized GMP-140 [1], the “% Binding of Biotinylated MAbs G1” value is 94%, the “% Binding of Biotinylated MAbs G2” value was found to be 92% and the “% Binding of Biotinylated MAbs G3” value is on record as 108%.

Take “LECTIN 19-30: synthetic peptide, amino acids 19-30 of the lectin domain of GMP-140 (CQNRYTDLVAIQ; UniProt P16109 60-71, looked up, fragment)”: the “% Binding of Biotinylated MAbs G3” value in the assay on immobilized GMP-140 [1] is 54%.

In the case of “LECTIN 54-72: synthetic peptide, amino acids 54-72 of the lectin domain of GMP-140 (RKNNKTWTWVGTKKALTNE; UniProt P16109 95-113, looked up, fragment)”, the “inhibition of neutrophil adhesion to immobilized GMP-140 by peptides” value (from here on “inhibition of neutrophil adhesion”) in the assay on immobilized GMP-140 [2] is on record as “inhibited adhesion”. Besides, in the assay on immobilized GMP-140 [1], the “% Binding of Biotinylated MAbs G1” value came out at 106%, the “% Binding of Biotinylated MAbs G2” value was 125% and the “% Binding of Biotinylated MAbs G3” value was 104%.

For “LECTIN 73-89: synthetic peptide, amino acids 73-89 of the lectin domain of GMP-140 (AENWADNEPNNKRNNED; UniProt P16109 114-130, looked up, fragment)”, the “inhibition of neutrophil adhesion” value in the assay with immobilized GMP-140 [2] is given as “inhibited adhesion”. In addition, in the assay on immobilized GMP-140 [1], the “% Binding of Biotinylated MAbs G1” value was found to be 95%, the “% Binding of Biotinylated MAbs G2” value is on record as 99% and the “% Binding of Biotinylated MAbs G3” value is 94%.

“LECTIN 91-108: synthetic peptide, amino acids 91-108 of the lectin domain of GMP-140 (VEIYIKSPSAPGKWNDEH; UniProt P16109 132-149, looked up, fragment)”: in the assay on immobilized GMP-140 [1], the “% Binding of Biotinylated MAbs G1” value was determined as 97%, the “% Binding of Biotinylated MAbs G2” value is given as 93% and the “% Binding of Biotinylated MAbs G3” value is recorded as 96%.

Regarding “LECTIN 110-116: synthetic peptide, amino acids 110-116 of the lectin domain of GMP-140 (LKKKHAL; UniProt P16109 151-157, looked up, fragment)”, in the assay on immobilized GMP-140 [1], the “% Binding of Biotinylated MAbs G1” value is 98%, the “% Binding of Biotinylated MAbs G2” value worked out at 100% and the “% Binding of Biotinylated MAbs G3” value is 108%.

“LECTIN/EGF 118-126: synthetic peptide, amino acids 118-126 of GMP-140 (lectin/EGF domains) (YTASCQDMS; UniProt P16109 159-167, looked up, fragment)”: in the assay with immobilized GMP-140 [1], the “% Binding of Biotinylated MAbs G1” value was found to be 92%, the “% Binding of Biotinylated MAbs G2” value worked out at 92% and the “% Binding of Biotinylated MAbs G3” value is listed as 104%.

As to “REPEATS 544-556: control peptide from one of the consensus repeats of GMP-140, amino acids 544-556”, in the assay with immobilized GMP-140 [1], the “% Binding of Biotinylated MAbs G1” value came out at 107%, the “% Binding of Biotinylated MAbs G2” value turned out to be 96% and the “% Binding of Biotinylated MAbs G3” value is listed as 111%.

On to “TRANSMEMBRANE 755-761: control peptide from the transmembrane region of GMP-140, amino acids 755-761 (RKRFRQK; UniProt P16109 796-802, looked up, fragment)”, for which, in the assay with immobilized GMP-140 [1], the “% Binding of Biotinylated MAbs G1” value is 100%, the “% Binding of Biotinylated MAbs G2” value was determined as 119% and the “% Binding of Biotinylated MAbs G3” value is 104%.

“amino acids 23-30: peptide from the GMP-140 lectin domain, amino acids 23-30 (YTDLVAIQ; UniProt P16109 64-71, looked up, fragment)”: the “inhibition of binding of neutrophils to immobilized GMP-140, dependence on concentration” value (“inhibition of binding of neutrophils” below) in the assay with immobilized GMP-140 [2] is on record as “inhibited binding in a dose-dependent manner”.

For “amino acids 54-63: peptide from the GMP-140 lectin domain, amino acids 54-63 (RKNNKTWTWV; UniProt P16109 95-104, looked up, fragment)”, the “inhibition of binding of neutrophils” value with immobilized GMP-140 [2] is listed as “inhibited binding in a dose-dependent manner”.

In the case of “amino acids 66-78: overlapping peptide of amino acids 66-78 of the GMP-140 lectin domain (KKALTNEAENWAD; UniProt P16109 107-119, looked up, fragment)”, in the assay on immobilized GMP-140 [2], the “inhibition of binding of neutrophils” value is reported as “inhibited binding in a dose-dependent manner” and the “inhibition of neutrophil adhesion” value was “inhibited adhesion”. Also, in the assay on immobilized GMP-140 [2] (listed as amino acids 66 to 78), the “inhibition of neutrophil adhesion” value was “very active”.

For the substance “amino acids 73-83: peptide from the GMP-140 lectin domain, amino acids 73-83 (AENWADNEPNN; UniProt P16109 114-124, looked up, fragment)”, the “inhibition of binding of neutrophils” value in the assay on immobilized GMP-140 [2] was “inhibited binding in a dose-dependent manner”.

For the substance sialyl Le^x, the “inhibition of GMP-140 binding by multivalent neoglycoconjugates” value in the assay with neutrophils was “failed to inhibit binding”.
